According to US20040115162A1, “Dermatological preparations” (KAO CORPORATION, priority 1999, published 2004):

Legend:
[1] = tested on: dorsal skin of rats with essential fatty acid deficiency; assay: Test 2: transepidermal water loss in rats with essential fatty acid deficiency; assay type: in vivo, Wistar male rats; design: unit not given here; conditions: 10% diamide derivative and 90% squalane; applied to shaven dorsal part once a day for 2 weeks; evaporimeter; mean of 5 rats
Description: (§1) Dermatologic preparations (invention products) of the present invention composed of 10% of each of the diamide derivatives prepared in Preparation Examples 1 to 18 and 90% of squalane were prepared and their transepidermal water loss and percutaneous absorption were evaluated by the below-described test method. For comparison, a dermatologic preparation (Comparative Product 2) composed of squalane alone was also evaluated by the test.
(§2) Wistar male rats were fed with a feed free from essential fatty acids and the resulting rats with essential fatty acid deficiency were employed in this test. The dorsal part of the rat showing essential fatty acid deficiency was carefully shaven and each dermatologic preparation to be evaluated was applied thereto once a day for 2 weeks. A group consisting of 5 rats was provided for the test of each dermatologic preparation. After 2 weeks, the following items were examined.
The dorsal part of the test rat was washed with warm water and the animal was the allowed to stand in a room (at 23° C. under a humidity of 45%) for 1 hour. The transepidermal water loss was then measured with an evaporimeter. Each measured value is expressed in mean value.

[2] = tested on: chapping in cheeks; assay: Test 1: skin chapping score by naked-eye observation after 2-week application on cheeks; assay type: in vivo, human; conditions: 33% diamide derivative and 67% vaseline, 2 weeks, mean score, 0 no chapping to 4 serious chapping
Description: (§3) Dermatologic preparations (invention products) composed of 33% of each of the diamide derivatives prepared in Preparation Examples 1 to 18 and 67% of vaseline were prepared. Their effects on skin conductance and chapping were evaluated in the below-described manner. For comparison, a dermatologic preparation (Comparative Product 1) composed of vaseline alone was evaluated in the same manner.
(§4) Ten female subjects aged 20 to 50 years, who suffered chapping in cheeks in winter, were employed. Different dermatologic preparations were applied on the right and left cheeks of the subjects for 2 weeks, respectively. On the next day after completion of the application for 2 weeks, the following items were examined.
Each score is expressed in the mean value.
0: No chapping is observed.
1: Slight chapping is observed.
3: Somewhat serious chapping is observed.
4: Serious chapping is observed.

[3] = tested on: horny layer; assay: Test 1: skin conductance (water content of the horny layer) after 2-week application on cheeks; assay type: in vivo, human; design: unit not given here; conditions: preparation of 33% diamide derivative and 67% vaseline; applied on cheeks 2 weeks; ten female subjects with chapping; skin conductance meter, 20° C., humidity 45%
Description: as §3, §4
The face of each subject was washed with warm water of 37° C. After they were allowed to stand in a room at 20° C. under a humidity of 45% for 20 minutes, the water content of the horny layer was measured using a skin conductance meter (product of IBS Co., Ltd.).

[4] = tested on: dorsal skin of rats with essential fatty acid deficiency; assay: Test 2: percutaneous absorption of 14C-salicylic acid through excised dorsal skin of treated rats; assay type: in vivo, Wistar male rats; conditions: 10% diamide derivative and 90% squalane; once a day for 2 weeks; radioactivity of 14C-salicylic acid penetrated in 2 hours through excised skin; mean
Description: as §1, §2
After the dorsal skin of the rat was washed with warm water of 37° C., it was cut and fixed in a percutaneous absorption chamber with the epidermal side thereof directed upward. A lower receiver of the chamber was filled with a phosphate buffer solution while a container on the epidermal side thereof was charged with 1 ml of a phosphate buffer solution containing 37 KBq of ^14C-salicylic acid. Two hours after they were allowed to stand, 1 mL of the phosphate buffer solution was taken out of the lower receiver and the radioactivity of the ^14C-salicylic acid which had penetrated into it was measured. Each value is expressed in mean value.

[5] = Miscibility and mixing stability in cosmetic formulations; assay type: physicochemical
[6] = in hair liquid composition of Table 10, 1%

| miscibility and mixing stability ([5]; in shampoo of Table 9, 2%) | miscibility and mixing stability ([5]; in skin lotion of Table 7, 1%) | miscibility and mixing stability ([5]; in O/W cream of Table 8, 3.5%) | miscibility and mixing stability [5, 6] | Structure (SMILES) | Transepidermal water loss [1] | Skin chapping score [2] | Skin conductance [3] | Percutaneous absorption [4] |
| --- | --- | --- | --- | --- | --- | --- | --- | --- |
| excellent | excellent |  |  | CC(CCCCCCC(=O)NCCOCCO)CCCCC(C)CCCCCCC(=O)NCCOCCO (stereo not drawn) [Compound (A)] | 12 | 0.6 | 28 | 572 |
|  |  |  |  | C/C(=C\CC/C=C(\C)CCCCCCC(=O)NCCOCCO)CCCCCCC(=O)NCCOCCO [Compound (B)] | 12 | 0.9 | 25 | 558 |
|  |  |  |  | O=C(CCCCCCCCCCCCCCCCCCC(=O)NCCOCCO)NCCOCCO [Compound (C)] | 21 | 1.0 | 21 | 1685 |
|  |  | excellent | excellent | O=C(CCCCCCCCC(=O)NCCOCCO)NCCOCCO [Compound (D)] | 15 | 0.5 | 30 | 997 |
|  |  |  |  | O=C(CCC(=O)NCCOCCO)NCCOCCO [Compound (E)] | 25 | 1.0 | 18 | 1772 |
| excellent | excellent | excellent | excellent | COCCCNC(=O)CCCCCCC(C)CCCCC(C)CCCCCCC(=O)NCCCOC (stereo not drawn) [Compound (F)] | 20 | 1.2 | 20 | 1487 |
|  |  |  |  | CCCCCCCCCCCCOCCCNC(=O)CCCCCCC(C)CCCCC(C)CCCCCCC(=O)NCCCOCCCCCCCCCCCC (stereo not drawn) [Compound (G)] | 16 | 1.1 | 17 | 1096 |
|  |  |  |  | COCCOCCNC(=O)CCCCCCC(C)CCCCC(C)CCCCCCC(=O)NCCOCCOC (stereo not drawn) [Compound (H)] | 23 | 1.3 | 19 | 2036 |
|  |  |  |  | O=C(CCCCCCCCCCCCCC(=O)NCCOCCO)NCCOCCO [Compound (I)] | 18 |  |  | 1197 |
|  |  |  |  | O=C(CCCCCCCCCCCC(=O)NCCOCCO)NCCOCCO [Compound (J)] | 21 | 0.8 | 23 | 1490 |
|  |  |  |  | O=C(CCCCCCCCCCC(=O)NCCOCCO)NCCOCCO [Compound (K)] | 22 |  |  | 1694 |
|  |  |  |  | COCCCNC(=O)CCCCCCCCCCCCCCCCCCC(=O)NCCCOC [Compound (L)] | 15 | 1.3 | 19 | 705 |
|  |  |  |  | COCCCNC(=O)CCCCCCCCCCC(=O)NCCCOC [Compound (M)] | 25 |  |  | 2038 |
|  |  |  |  | COCCCNC(=O)CCCCCCCCC(=O)NCCCOC [Compound (N)] | 23 | 1.5 | 18 | 1560 |
|  |  |  |  | CCCCCCCCCCCCOCCCNC(=O)CCCCCCCCC(=O)NCCCOCCCCCCCCCCCC [Compound (O)] | 27 |  |  | 2476 |
